pEC50: −log10 of the molar value.

EC50 data for 30 compounds are collected here from patent publication US20130210809A1, “NOVEL 2-AMINO-4-PYRAZOLYL-THIAZOLE DERIVATIVES AND THEIR USE AS ALLOSTERIC MODULATORS OF METABOTROPIC GLUTAMATE RECEPTORS” (priority 2010, published 2013).

In the test the target is T1, recombinant human mGluR4a receptors (Homo sapiens, UniProt Q14833).
T1 construct: expressed in transfected cells
The test can be described thus: mGluR4 assay on HEK-expressing human mGluR4 (fluorescent cell based Ca2+ mobilization assay, FLIPR). As to conditions: HEK-293 cells expressing hmGluR4; enhancement of EC25 glutamate response; mean of at least three independent experiments in duplicate; read-out: Ca^2+ Flux (mean EC50). An excerpt: mGluR4 Assay on HEK-Expressing Human mGluR4
The compounds of the present invention are positive allosteric modulators of mGluR4 receptor. Their activity was examined on recombinant human mGluR4a receptors by detecting changes in intracellular Ca^2+ concentration, using the fluorescent Ca^2+-sensitive dye Fluo4-(AM) and a Fluorometric Imaging Plate Reader (FLIPR, Molecular Devices, Sunnyvale, Calif.).
The cDNA encoding the human metabotropic glutamate receptor (hmGluR4), (accession number NM_000841.1, NCBI Nucleotide database browser), was subcloned into an expression vector containing also the Hygromycin resistance gene. In parallel, the cDNA encoding a G protein allowing redirection of the activation signal to intracellular calcium flux was subcloned into a different expression vector containing also the Puromycin resistance gene. Transfection of both these vectors into HEK293 cells with PolyFect reagent (Qiagen) according to supplier's protocol, and hygromycin and puromycin treatment allowed selection of antibiotic resistant cells which had integrated stably one or more copies of the plasmids. Positive cellular clones expressing hmGluR4 were identified in a functional assay measuring changes in calcium flux in response to glutamate or selective known mGluR4 orthosteric agonists and antagonists. HEK-293 cells expressing hmGluR4 were maintained in media containing DMEM, dialyzed Fetal Calf Serum (10%), Glutamax™ (2 mM), Penicillin (100 units/mL), Streptomycin (100 μg/mL), Geneticin (100 μg/mL) and Hygromycin-B (40 μg/mL) and Puromycin (1 μg/mL) at 37° C./5% CO2.
Human mGluR4 HEK-293 cells were plated out 24 hours prior to FLIPR^384 assay in black-walled, clear-bottomed, poly-L-ornithine-coated 384-well plates at a density of 25,000 cells/well in a glutamine/glutamate free DMEM medium containing foetal bovine serum (10%), penicillin (100 units/mL) and streptomycin (100 μg/mL) at 37° C./5% CO2.
On the day of the assay, the medium was aspirated and the cells were loaded with a 3 μM solution of Fluo4-AM (LuBioScience, Lucerne, Switzerland) in 0.03% pluronic acid. After 1 hour at 37° C./5% CO2, the non incorporated dye was removed by washing cell plate with the assay buffer and the cells were left in the dark at it for six hours before testing. All assays were performed in a pH 7.4 buffered-solution containing 20 mM HEPES, 143 mM NaCl, 6 mM KCl, 1 mM MgSO4, 1 mM CaCl2, 0.125 mM sulfapyrazone and 0.1% glucose.
After 10 s of basal fluorescence recording, various concentrations of the compounds of the invention were added to the cells. Changes in fluorescence levels were first monitored for 180 s in order to detect any agonist activity of the compounds. Then the cells were stimulated by an EC25 glutamate concentration for an additional 110 s in order to measure enhancing activities of the compounds of the invention. EC25 glutamate concentration is the concentration giving 25% of the maximal glutamate response.
The concentration-response curves of representative compounds of the present invention were generated using the Prism GraphPad software (Graph Pad Inc, San Diego, USA). The curves were fitted to a four-parameter logistic equation:
(Y=Bottom+(Top−Bottom)/(1+10̂((Log EC50-X)*Hill Slope)
allowing the determination of EC50 values.
The Table 3 below represents the mean EC50 obtained from at least three independent experiments of selected molecules performed in duplicate.

T1 sequence (Q14833 33-912): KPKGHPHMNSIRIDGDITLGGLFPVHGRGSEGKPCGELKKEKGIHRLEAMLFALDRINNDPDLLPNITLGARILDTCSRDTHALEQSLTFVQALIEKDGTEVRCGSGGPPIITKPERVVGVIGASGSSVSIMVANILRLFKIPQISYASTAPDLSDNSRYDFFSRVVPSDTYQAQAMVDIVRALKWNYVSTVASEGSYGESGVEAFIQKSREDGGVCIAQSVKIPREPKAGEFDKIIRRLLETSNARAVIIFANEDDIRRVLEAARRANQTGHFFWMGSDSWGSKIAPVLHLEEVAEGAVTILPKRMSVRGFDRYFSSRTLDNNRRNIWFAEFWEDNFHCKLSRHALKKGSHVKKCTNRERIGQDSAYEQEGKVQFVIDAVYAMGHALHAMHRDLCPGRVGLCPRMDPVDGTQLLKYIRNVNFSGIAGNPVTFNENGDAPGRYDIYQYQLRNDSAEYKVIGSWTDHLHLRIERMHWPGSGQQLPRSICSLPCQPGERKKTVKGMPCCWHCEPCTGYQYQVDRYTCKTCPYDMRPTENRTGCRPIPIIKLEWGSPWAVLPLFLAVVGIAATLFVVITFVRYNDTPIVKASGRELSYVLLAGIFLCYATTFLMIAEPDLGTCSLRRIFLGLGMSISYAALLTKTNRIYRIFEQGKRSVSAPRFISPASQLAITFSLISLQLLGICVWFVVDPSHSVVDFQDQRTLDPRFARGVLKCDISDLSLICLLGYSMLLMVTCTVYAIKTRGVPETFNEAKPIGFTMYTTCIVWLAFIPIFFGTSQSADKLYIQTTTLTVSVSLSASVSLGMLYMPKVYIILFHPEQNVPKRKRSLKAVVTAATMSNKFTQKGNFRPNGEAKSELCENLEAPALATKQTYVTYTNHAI

For orientation: pEC50 means the negative decadic logarithm of the EC50, by convention in mol/L. In the case of “3-(3-(2-(Pyrimidin-2-ylamino)thiazol-4-yl)-1H-pyrazol-4-yl)benzonitrile [Compound 1-43]”, the pEC50 is above 7.00.

On to `Cc1ccnc(Nc2nc(-c3c[nH]nc3C(F)F)cs2)n1` [Compound 1-1, 4-(3-(Difluoromethyl)-1H-pyrazol-4-yl)-N-(4-methylpyrimidin-2-yl)thiazol-2-amine], for which the negative logarithm of the EC50 (pEC50) was above 7.00.

For the compound `Cc1ccnc(Nc2nc(-c3c[nH]nc3-c3cccc(N4CCS(=O)(=O)CC4)c3)cs2)n1` [Compound 1-2, N-(4-Methylpyrimidin-2-yl)-4-(3-(3-(1,1-dioxido-4-thiomorpholinyl)phenyl)-1H-pyrazol-4-yl)thiazol-2-amine], the pEC50 was 5.00 to 6.00.

For `Cc1ccnc(Nc2nc(-c3c[nH]nc3-c3ccccc3F)cs2)n1` [Compound 1-3, 4-(3-(2-Fluorophenyl)-1H-pyrazol-4-yl)-N-(4-methylpyrimidin-2-yl)thiazol-2-amine], the negative logarithm of the EC50 (pEC50) is above 7.00.

Regarding `Cc1ccnc(Nc2nc(-c3c[nH]nc3-c3cccc(C#N)c3)cs2)n1` [Compound 1-4, 3-(4-(2-(4-Methylpyrimidin-2-ylamino)thiazol-4-yl)-1H-pyrazol-3-yl)benzonitrile], the negative-log EC50 (pEC50) was above 7.00.

Consider `Cc1ccnc(Nc2nc(-c3c[nH]nc3-c3ccc(C(O)C(F)(F)F)cc3)cs2)n1` (stereo not drawn) [Compound 1-6, 2,2,2-Trifluoro-1-(4-(4-(2-(4-methylpyrimidin-2-ylamino)thiazol-4-yl)-1H-pyrazol-3-yl)phenyl)ethanol], for which the pEC50 was 5.00 to 6.00.

As for `Cc1ccnc(Nc2nc(-c3c[nH]nc3-c3cccc4c3CNC4=O)cs2)n1` [Compound 1-7, 4-(4-(2-(4-Methylpyrimidin-2-ylamino)thiazol-4-yl)-1H-pyrazol-3-yl)isoindolin-1-one], the negative logarithm of the EC50 (pEC50) was 5.00 to 6.00.

For the compound `Cc1ccnc(Nc2nc(-c3c[nH]nc3-c3cnn4c3CCC4)cs2)n1` [Compound 1-8, 4-(3-(5,6-Dihydro-4H-pyrrolo[1,2-b]pyrazol-3-yl)-1H-pyrazol-4-yl)-N-(4-methylpyrimidin-2-yl)thiazol-2-amine], the pEC50 is 5.00 to 6.00.

Turning to `Cc1ccnc(Nc2nc(-c3c[nH]nc3-c3cccc(CN4CCOCC4)c3)cs2)n1` [Compound 1-9, N-(4-Methylpyrimidin-2-yl)-4-(3-(3-(morpholinomethyl)phenyl)-1H-pyrazol-4-yl)thiazol-2-amine], the pEC50 was 5.00 to 6.00.

Turning to `Cc1ccnc(Nc2nc(-c3c[nH]nc3-c3cncc(Cl)c3)cs2)n1` [Compound 1-10, 4-(3-(5-Chloropyridin-3-yl)-1H-pyrazol-4-yl)-N-(4-methylpyrimidin-2-yl)thiazol-2-amine], the negative-log EC50 (pEC50) is 5.00 to 6.00.

`COc1ccccc1-c1n[nH]cc1-c1csc(Nc2nccc(C)n2)n1` [Compound 1-11, 4-(3-(2-Methoxyphenyl)-1H-pyrazol-4-yl)-N-(4-methylpyrimidin-2-yl)thiazol-2-amine]: the pEC50 was 5.00 to 6.00.

Turning to `Cc1cccc(-c2n[nH]cc2-c2csc(Nc3nccc(C)n3)n2)c1` [Compound 1-12, N-(4-Methylpyrimidin-2-yl)-4-(3-m-tolyl-1H-pyrazol-4-yl)thiazol-2-amine], the pEC50 was 5.00 to 6.00.

Take `c1ccc(Nc2nc(-c3c[nH]nc3N3CCOCC3)cs2)nc1` [Compound 1-13, 4-(3-Morpholino-1H-pyrazol-4-yl)-N-(pyridin-2-yl)thiazol-2-amine]: the negative logarithm of the EC50 (pEC50) was 5.00 to 6.00.

For the compound `Cc1ccnc(Nc2nc(-c3c[nH]nc3-c3cncc(C(C)(C)O)c3)cs2)n1` [Compound 1-14, 2-(5-(4-(2-(4-Methylpyrimidin-2-ylamino)thiazol-4-yl)-1H-pyrazol-3-yl)pyridin-3-yl)propan-2-ol], the negative logarithm of the EC50 (pEC50) is 5.00 to 6.00.

Regarding `Cc1ccnc(Nc2nc(-c3c[nH]nc3-c3cccc(CCCO)c3)cs2)n1` [Compound 1-15, 3-(3-(4-(2-(4-Methylpyrimidin-2-ylamino)thiazol-4-yl)-1H-pyrazol-3-yl)phenyl)propan-1-ol], the pEC50 was 6.00 to 7.00.

Take `Cc1ccnc(Nc2nc(-c3c[nH]nc3-c3ccc(Cl)cc3)cs2)n1` [Compound 1-16, 4-(3-(4-Chlorophenyl)-1H-pyrazol-4-yl)-N-(4-methylpyrimidin-2-yl)thiazol-2-amine]: the pEC50 was 6.00 to 7.00.

As to `Cc1ccnc(Nc2nc(-c3c[nH]nc3-c3ccc(C4CC4)cc3)cs2)n1` [Compound 1-17, 4-(3-(4-Cyclopropylphenyl)-1H-pyrazol-4-yl)-N-(4-methylpyrimidin-2-yl)thiazol-2-amine], the negative logarithm of the EC50 (pEC50) is 5.00 to 6.00.

With `Cc1ccnc(Nc2nc(-c3c[nH]nc3-c3ccncc3)cs2)n1` [Compound 1-18, N-(4-Methylpyrimidin-2-yl)-4-(3-(pyridin-4-yl)-1H-pyrazol-4-yl)thiazol-2-amine], the negative logarithm of the EC50 (pEC50) is 5.00 to 6.00.

As for `Cc1ccnc(Nc2nc(-c3c[nH]nc3-c3ccccc3C)cs2)n1` [Compound 1-19, N-(4-Methylpyrimidin-2-yl)-4-(3-o-tolyl-1H-pyrazol-4-yl)thiazol-2-amine], the pEC50 is 5.00 to 6.00.

For `Cc1ccnc(Nc2nc(-c3c[nH]nc3-c3ccccc3OC(F)(F)F)cs2)n1` [Compound 1-20, N-(4-Methylpyrimidin-2-yl)-4-(3-(2-(trifluoromethoxy)phenyl)-1H-pyrazol-4-yl)thiazol-2-amine], the pEC50 is 5.00 to 6.00.

Turning to `Cc1ccnc(Nc2nc(-c3c[nH]nc3-c3ccccc3Cl)cs2)n1` [Compound 1-21, 4-(3-(2-Chlorophenyl)-1H-pyrazol-4-yl)-N-(4-methylpyrimidin-2-yl)thiazol-2-amine], the pEC50 is 6.00 to 7.00.

Consider `Cc1ccnc(Nc2nc(-c3c[nH]nc3-c3cccc(C(N)=O)c3)cs2)n1` [Compound 1-22, 3-(4-(2-(4-Methylpyrimidin-2-ylamino)thiazol-4-yl)-1H-pyrazol-3-yl)benzamide], for which the negative logarithm of the EC50 (pEC50) is 5.00 to 6.00.

Turning to `CCOc1ccccc1-c1n[nH]cc1-c1csc(Nc2nccc(C)n2)n1` [Compound 1-23, 4-(3-(2-Ethoxyphenyl)-1H-pyrazol-4-yl)-N-(4-methylpyrimidin-2-yl)thiazol-2-amine], the pEC50 was 5.00 to 6.00.

As for `Cc1ccnc(Nc2nc(-c3c[nH]nc3-c3ccc(F)cc3F)cs2)n1` [Compound 1-24, 4-(3-(2,4-Difluorophenyl)-1H-pyrazol-4-yl)-N-(4-methylpyrimidin-2-yl)thiazol-2-amine], the pEC50 is 5.00 to 6.00.

`Cc1ccnc(Nc2nc(-c3cn[nH]c3COC3CCC3)cs2)n1` [Compound 1-28, 4-(5-(Cyclobutoxymethyl)-1H-pyrazol-4-yl)-N-(4-methylpyrimidin-2-yl)thiazol-2-amine]: the pEC50 is 6.00 to 7.00.

With `COC(C)c1[nH]ncc1-c1csc(Nc2nccc(C)n2)n1` (stereo not drawn) [Compound 1-29, 4-(5-(1-Methoxyethyl)-1H-pyrazol-4-yl)-N-(4-methylpyrimidin-2-yl)thiazol-2-amine], the negative-log EC50 (pEC50) is 6.00 to 7.00.

On to `COc1ccc(F)cc1-c1n[nH]cc1-c1csc(Nc2ncccn2)n1` [Compound 1-31, 4-(3-(5-Fluoro-2-methoxyphenyl)-1H-pyrazol-4-yl)-N-(pyrimidin-2-yl)thiazol-2-amine], for which the negative logarithm of the EC50 (pEC50) is above 7.00.

As for `CNC(=O)c1[nH]ncc1-c1csc(Nc2nccc(C)n2)n1` [Compound 1-32, N-Methyl-4-(2-(4-methylpyrimidin-2-ylamino)thiazol-4-yl)-1H-pyrazole-5-carboxamide], the pEC50 is 5.00 to 6.00.

Take `CC(=O)N1CCC=C(c2n[nH]cc2-c2csc(Nc3nccc(C)n3)n2)C1` [Compound 1-33, 1-(3-(4-(2-(4-Methylpyrimidin-2-ylamino)thiazol-4-yl)-1H-pyrazol-3-yl)-5,6-dihydropyridin-1(2H)-yl)ethanone]: the pEC50 was 5.00 to 6.00.

As to `Cc1ccnc(Nc2nc(-c3cn[nH]c3-c3cc(C#N)ccc3F)cs2)n1` [Compound 1-34, 4-Fluoro-3-(4-(2-(4-methylpyrimidin-2-ylamino)thiazol-4-yl)-1H-pyrazol-5-yl)benzonitrile], the pEC50 is 6.00 to 7.00.
